Results from patent publication US7910723B2, “IG20 splice variants therapeutics for cancer” (The Board of Trustees of the University of Illinois, priority 2006, dated 2011).

Legend:
Format in all cases: cell-based
caspase-8 [1] = experiment: TRAIL-induced DISC immunoprecipitation from HeLa cells, immunoblot; conditions: 250 ng TRAIL 30 min, relative to SCR
Method: To more specifically analyze the DISC associated with TRAIL-bound death receptors, TRAIL-induced DISC was immunoprecipitated from HeLa cells using a biotinylated-antibody specific for TRAIL from HeLa cells that were either left untreated or treated with 250 ng of TRAIL for 30 min. Complexes were separated on 12% SDS-PAGE and subjected to immunoblotting with various antibodies that can specifically react with specific DISC components. Increased recruitment of FADD and pro-caspase-8 was observed after TRAIL treatment. […] However, increased caspase-8 activation (p43/41) was more apparent only upon MADD down-modulation.
Characterization of DISC immunoprecipitated using anti-TRAIL antibody. HeLa (2×10^7) cells transduced for 36 h were treated with 250 ng of TRAIL (Peprotech) for 30 minutes either at 4° C. (untreated) or at 37° C. (treated), collected, washed in cold PBS and lysed in 1 mL lysis buffer for 30 minutes on ice. The lysates were clarified and then normalized for protein concentration. The DISC was then immunoprecipitated overnight using 2 μg/mL of anti-TRAIL-biotinylated antibody. The biotinylated antibody was immunoprecipitated with 35 μL of 50% slurry of streptavidin agarose beads. The beads were washed three times with lysis buffer, boiled in SDS sample buffer and separated on a 12% SDS-PAGE gel for immunoblot analysis.

IG20-SVs = experiment: RT-PCR of IG20-SVs in shRNA-transduced PA-1 cells; conditions: PA-1, 72 hours post-transduction
Method: The effects of IG20 down-modulation in PA-1 cells were analyzed. Down-modulation of endogenous IG20 in PA-1 cells was analyzed. RT-PCR of IG20-SVs using F2-B2 primers from PA-1 cells 72 hours post-transduction was performed. Amplification of only IG20pa and MADD using 13L-F and B2 primers was performed. Nuclear Condensation was also determined. 72 hours post-transduction, PA-1 cells were stained with Hoechst stain and analyzed by FACS. Mitochondrial Depolarization was performed. 72 hours post transduction, PA-1 cells were stained with TMRM and analyzed by FACS.
RT-PCR. Total RNA was extracted from 1×10^6 transduced cells using Trizol (Invitrogen Life Technologies, Carlsbad, Calif.), and 1 jig of RNA was used for RT-PCR using the Super-Script One-Step RT-PCR system (Invitrogen Life Technologies, Carlsbad, Calif.). Briefly, the cDNAs were synthesized at 50° C. for 30 minutes followed by incubation at 94° C. for 2 minutes. Subsequently, 35 cycles of PCR were carried out with de-naturation at 95° C. for 30 seconds, annealing at 55° C. for 30 seconds and extension at 72° C. for 1 minute. This was followed by a final incubation at 72° C. for 7 minutes. The sequences of F2-B2 and GAPDH primers were as published (Al-Zoubi et al., (2001), J Biol Chem, 276 (50), 47202-11.). 13L-Forward (5′[…]3′ (SEQ ID NO: 15)) and B2-reverse primers were used to amplify only MADD and IG20pa. […]

caspase-8 [2] = experiment: Immunoblot of caspase-8 processing in transduced HeLa cells; conditions: 48 h post-transduction
Method: To gain insight into the mechanism underlying MADD-mediated cell survival, whether caspases were activated upon abrogation of MADD expression examined. HeLa cells and PA-1 cells were collected 48 h post-transduction and probed for caspase-8 and FADD, which are components of the DISC. […] TRAIL treatment results in recruitment of procaspase-8 to the receptors followed by its cleavage resulting in its activation. The cleaved intermediate fragments (p43/p41) and the catalytically active subunits of caspase-8 (p18) were detected upon TRAIL treatment. Caspase-8 is the initiator caspase that can cause activation of the effector caspase-3. A decrease in the amount of pro-caspase-3 indicates its cleavage to form active caspase-3 only in MADD-depleted cells.
Immunoblotting. The membranes were blocked in 5% non-fat dry milk in PBS-Tween (PBS with 0.05% Tween 20) for 1 hour. Primary antibodies were used at a concentration of 1 μg/mL and the secondary antibodies were used at a 1:10000 concentration. The blots were developed by enhanced chemiluminescence according to the manufacturer's protocol (Pierce Biotechnology Inc., Rockford, Ill.).

14-3-3 = experiment: Association of endogenous MADD with 14-3-3 in HeLa cells (immunoprecipitation); conditions: LY 10 μM 1 h
Method: (A) Cellular distributions of wtMADD and MADD3A. HEK293 cells were transfected with wtMADD or MADD3A. 36 h after transfection, the cells were harvested and membrane andcytosolic fractions were prepared. Immunoblotting was performed using an anti-YFP antibody. Actin and caveolin-1 were used as loading controls. (B) […]. HEK293 cells were transfected with wtMADD or MADD3A. 36 h after transfection, the cells were harvested for immunoprecipitation using an anti-14-3-3 antibody followed by immunoblotting using an anti-YFP antibody for detecting exogenous MADD. The membrane was reprobed with an anti-14-3-3 antibody to show protein loading. (C) Inhibition of PI3K can lead to the association of wtMADD with 14-3-3. HEK293 cells were transfected with wtMADD. Cells were serum starved for 20 h and treated with LY (10 μM) for 1 h. Immunoprecipitation was performed using an anti-14-3-3 antibody, followed by immunoblotting using an anti-YFP or an anti-14-3-3 antibody. (D) Inhibition of Akt can result in the association of wtMADD with 14-3-3. HEK293 cells were co-transfected with wtMADD along with DN-Akt or pcDNA. […]
To explore the molecular mechanism by which nonphosphorylated MADD can trigger apoptosis, the cellular localization of phosphorylated and nonphosphorylated MADD was determined. […]
Immunoprecipitation. […] Immunoblots were prepared and analysed as described above.

Compound	Intermediate fragments of caspase-8 (p43/41) in TRAIL immunoprecipitates (caspase-8 [1])	Down-modulation of endogenous IG20-SVs (RT-PCR) (IG20-SVs)	Intermediate active-caspase-8 proteins (p43/41) (caspase-8 [2])	Binding of endogenous MADD to 14-3-3 (14-3-3)
13L-shRNA: shRNA targeting exon 13L (IG20, MADD), 5′ CGGCGAATCTATGACAATC-3′ (SEQ ID NO: 4)	increased levels of intermediate fragments of caspase-8 (p43/41)	abrogated only MADD expression	higher amounts of the intermediate active-caspase-8 proteins (p43/41)	
O=c1cc(N2CCOCC2)oc2c(-c3ccccc3)cccc12 [LY]				could bind to 14-3-3 only in the presence, but not in the absence, of LY
